Series [1] has as its system S. epidermidis biofilm. The series can be described thus: Inhibition of biofilm formation in petri dishes, S. epidermidis. The settings on record: percent reduction of control. In kind it is cell-based. How it is done:
(§1) Biofilm formation in petri dishes was measured using the following protocol as a compromise between flow cells and microtitire plate based assays. The method increases the number of replicates (relative to flow cells) that can be tested while still generating a biofilm that has typical structures, such as microcolonies, which are important as differentiated structures within the biofilm. The method consists of placing a surface, such as a glass slide (for unattached compounds) or a modified plastic coupon (for covalently attached compounds) on the bottom of a sterile petri dish and adding growth medium. The bacteria are inoculated into the dish and allowed to incubate at the appropriate temperature at 50 rpm. The medium is replaced at 24 h and allowed to incubate a further 24 h, after which time, the slides are removed and rinsed to remove loosely attached cells. For monitoring biofilm formation on glass slides, the cells are either stained with a suitable fluorescent stain and are visualised using the confocal microscope and the biofilm (as % surface coverage) is quantified, or the biofilm is stained with crystal violet, washed thoroughly to remove excess stain, and subsequently destained and the absorbance at […] is measured to determine the amount of biofilm, as a function of crystal violet staining.

Series [2] deals with V. fischeri luxRI system. Description: N-acylated homoserine lactone (AHL) quorum sensing assay, GFP reporter strain. It counts as cell-based, E. coli. The settings on record: for ID40 at 3 nM OHHL: Table 4, number in parentheses, amount of compound lowering relative activity to 40%. How it is done:
Compounds of the present invention were compared to compounds of the prior art in order using an AHL-quorum sensing assay which utilises a reporter strain that expresses Green Fluorescent Protein (GFP) in the presence of AHL signals. The assay is performed by measuring GFP output in the presence of the compound to be measured and comparing the output to a control. By using multiple samples at varying concentrations of compound and AHL, an inhibition index of compound activity can be generated. The inhibition index used in the present example is the relative amount of compound required to reduce GFP expression to 40% of the control. The inhibition index is termed AIC40. Lower values of AIC40 represent better inhibitors of the AHL quorum sensing system.
The reporter strain of bacterium used in this assay is E. coli into which the V. fischeri luxRI system has been engineered. A gfp gene is fused to the QS controlled luxI promoter as is described in (Andersen et al., 2001, and Andersen et al, 1998).
Measurement of AIC40 (ID40 at 3 nM OHHL)
Determination of the activity of compounds using the E. coli based luxRI construct was performed as follows.
In a 15 mL plastic tube, mix 3 mL of o.n. culture of the lux reporter strain with 12 mL fresh medium, incubate at 37° C. Label six tubes, 10, 20, two 50 and two 100. To each of the tubes, add OHHL (3-oxohexanoyl homoserine lactone) to a final concentration of 10, 20, 50, or 100 nM respectively in the AB medium (add enough medium to distribute across the appropriate number of wells). To the first row of the microplate (row A), add 200 ul of the OHHL/AB mixture. To the remaining rows (B-H) add 100 ul of the OHHL/AB mixture. To the first row (A) add compounds to be tested to the 200 ul mixture of OHHL/AB. Make a dilution series in the first 7 rows by transferring 100 μL from wells in row 1 to wells in row 2 and so on. Discard the remaining 100 μL from row 7. Add 100 μL diluted lux monitor to each well. Incubate the plate 2 hours at 37° C. and measure green fluorescence using the “Victor” plate reader.
Calculate ID40 for each column. To do this, calculate the relative activity in each well. […] Make a plot for each concentration of OHHL vs. the range of compound concentrations used. Calculate the amount of compound needed to lower the relative activity to 40%, this is termed inhibiting dose 40%, ID40. For each compound an inhibition index, AIC40, is found as follows: plot ID40 against its respective AHL concentration; AIC40 is the slope of the best straight line through the plotted points and origin.
The methodology for this assay is set out in 2(a) above.

Series [3] concerns LasR. Description: LasR assay (unstable gfp fused to the elastase promoter). In kind it is cell-based. The settings on record: Pseudomonas aeruginosa, read-out: LasR (conc). The protocol: Compounds of the present invention were also assayed using a LasR assay. The LasR assay provides a measurement of quorum sensing inhibition activity. The higher the percentage inhibition. […] In the LasR assay, an unstable gfp has been fused to the elastase promoter, so that the amount of Gfp is regulated by the QS system. The plasmid is put into Pseudomonas aeruginosa which makes its own AHL signals. The assay is performed by adding the compounds to be tested to the system at the beginning of the experiment, at different concentrations. Gfp expression is measured at different times during growth, ending at the 24 h time point. The percentage fluorescence was determined at the time point when the fluorescence reached its maximum in the control, usually around 11-12 h after inoculation.

In series [4] the test system is Staphylococcus epidermidis. Description: S. epidermidis growth inhibition (OD600 growth curves). It counts as cell-based. The settings on record: concentration of compound that significantly alters growth rate or final growth yield. How it is done:
The growth inhibition of Staphylococcus epidermidis by the compounds of the present invention was determined by growing S. epidermidis in 96 well microtitre plates in Trypticase Soy Broth plus 0.5% glucose in a Wallac Victor2 microplate reader. Each compound was added to the wells at different concentrations and a no-compound control and a set of blank wells were also used. The OD600 was measured hourly.

Series [5] concerns P. aeruginosa biofilm. The series can be described thus: Inhibition of biofilm formation in petri dishes, P. aeruginosa. It counts as cell-based. The note with it: percent reduction of control. The protocol: as §1
Series [6] concerns Murine L929 cells. Description: Cytotoxicity study, L929 cell number after 48 hour culture. In kind it is cell-based. The settings on record: for Mean (cell number): L929, 48 hour; for % Inhibition: cell number vs non-challenged cultures. How it is done: Murine L929 cells are established at low density and, during the testing period, grow to confluency in plastic petri dishes. 24 hours after the dishes are inoculated, the medium on the test dishes is aspirated and replaced with a medium containing the compound to be tested. The cell monolayer is then cultured for a further 48 hour period. At the end of the test period, cells are harvested from the dishes and their numbers assessed and compared with unperturbed cultures. Differences in cell numbers are expressed as a percentage inhibition in comparison to non-challenged cultures.

In series [7] the test system is Pseudomonas aeruginosa PAO1 (wt). The series can be described thus: Pulmonary model of infection: mice challenged with bacteria/seaweed alginate through the trachea. In kind it is in vivo. The protocol: The first group was treated with 5-methylene-4-phenyl-dihydro-pyrrol-2-one (C219) as 12 μg/g body weight, given as injections twice a day for three days and the second group were treated with vehicle. (p=0.0008).
This model is reminiscent of the situation in CF patients or patients with a dysfunctional muccociliary escalator.
The treatment dosage of 5-methylene-4-phenyl-dihydro-pyrrol-2-one (C219) was 12 μg/g body weight, given as injections twice a day.
Mice were challenged with Pseudomonas aeruginosa PAO1 (wt) 5.2×10^6 CFU/lung (1.3×10^8 CFU/ml). Each group holds 10 mice, the treatments with C219 and Vehicle lasted for three days. The mortality was 10% in C219 and 30% in Vehicle groups. At day 5, the surviving mice were sacrificed.

The subject of series [8] is E. coli biofilm. Description: Inhibition of biofilm formation in petri dishes, E. coli. In kind it is cell-based. The settings on record: percent reduction of control. How it is done: as §1
Where [9] appears, read: inhibition index: slope of ID40 against AHL concentration, lower = better inhibitor, NE = no effect.
The mark [10] stands for this setting: Table 4 comparative results, first number of the cell, lower = better.

The values that follow come from patent US9586901B2, “Lactams” (UNILEVER PLC, priority 2006, dated 2017).

What is called minimal effective concentration is the smallest amount tested that counted as effective. Take `C=C1NC(=O)C=C1c1ccccc1F`: the S. epidermidis biofilm in series [1] (0.3 ug/ml) is recorded as 60% (0.3 ug/ml). In series [2] (setting [9]), this compound had an AIC40 of 1.7. The inhibition at 25 µg/mL in series [3] turned out to be 60%. Further, the minimal effective concentration in series [4] amounted to 20 µg/mL.
With `CC1(O)NC(=O)C=C1c1ccccc1F` (centres unmarked), the S. epidermidis biofilm in series [1] (50 ug/ml) is listed as 17% (50 ug/ml). In series [2] (setting [9]), the AIC40 is recorded as 9.9. For the same compound, in series [3], the inhibition at 100 µg/mL came to 40%. Moreover, the minimal effective concentration in series [4] was greater than 100 µg/mL. Further, the P. aeruginosa biofilm in series [5] (20 ug/ml) is on record as 12% (20 ug/ml).
The term % Inhibition denotes the drop in the measured response relative to a control, in per cent. Broadly, the mortality is the share of the test organisms that died. Regarding `C=C1NC(=O)C=C1c1ccccc1` [Compound 219, 5-methylene-4-phenyl-dihydro-pyrrol-2-one], the AIC40 result in series [2] (setting [10]) is “significantly better AIC40 values than compounds 198 and 205”. Further, the “Mean (cell number)” value in series [6] (10 μg/ml) worked out at 5.41E+05; in series [6] (20 μg/ml) it was 4.95E+05; in series [6] (40 μg/ml, E+05 = ×10^5), 4.74E+05. Also, the “% Inhibition” value in series [6] (10 μg/ml) is recorded as −10.3%; in series [6] (20 μg/ml) it was −1.0%; in series [6] (40 μg/ml, 30% = cytotoxic potential), 3.4%. Also, the “cytotoxicity (in words)” value in series [6] (compared with compounds 226 and 223) is on record as “surprisingly little or no cytotoxicity”. The compound also showed a mortality in series [7] (12 μg/g body weight, injections twice a day for three days, 10 mice per group, Vehicle 30%) of 10%. The “severity (LIMP) of P aeruginosa lung infection” value in series [7] (LIMP = fraction of total lung area showing inflammation, 12 μg/g twice a day for three days, vs vehicle) is recorded as “significantly reduced the severity (LIMP)”. Besides, in series [7] (day 5, 12 μg/g twice a day for three days, vs Vehicle, p=0.0008 (FIG. 1)), the lung bacterial load result was “significantly reduced the lung bacterial load”.
For `C=C1NC(=O)C=C1c1ccccc1` [drawing 20], the “ID40 at 3 nM OHHL” value in series [2] (unit not given) was found to be 16.2. Besides, the AIC40 in series [2] (setting [10]) and in series [2] (setting [9]) was 1.1 throughout. Besides, the E. coli biofilm in series [8] (5 ug/ml) was 95% (5 ug/ml). Moreover, the inhibition at 50 µg/mL in series [3] was determined as 80%. Moreover, the minimal effective concentration in series [4] came out at 5 µg/mL. In addition, the P. aeruginosa biofilm in series [5] (10 ug/ml) was 88% (10 ug/ml).
Consider `C=C1NC(=O)C=C1c1ccc(F)cc1` [drawing 21], for which the S. epidermidis biofilm in series [1] (10 ug/ml) is recorded as 40% (10 ug/ml). For the same compound, the “ID40 at 3 nM OHHL” value in series [2] (unit not given) was 17.61. The AIC40 in series [2] (setting [10]) and in series [2] (setting [9]) was 4.61 throughout. In addition, the inhibition at 50 µg/mL in series [3] amounted to 61%. In series [4], this compound returned a minimal effective concentration of 20 µg/mL. In addition, the P. aeruginosa biofilm in series [5] (12.5 ug/ml) is recorded as 78% (12.5 ug/ml).
As to `C=C1NC(=O)C=C1c1ccc(OC)cc1` [drawing 24], in series [2], the “ID40 at 3 nM OHHL” value is listed as 61 nM. The AIC40 in series [2] (setting [10]) and in series [2] (setting [9]) was 5.4 throughout. Moreover, the inhibition at 25 µg/mL in series [3] amounted to 36%. Besides, the P. aeruginosa biofilm in series [5] (25 ug/ml) is on record as 76% (25 ug/ml).
Consider `C=C1NC(=O)C=C1c1ccc(Br)cc1` [drawing 25], for which the S. epidermidis biofilm in series [1] (0.32 ug/ml) is on record as 41% (0.32 ug/ml). Besides, in series [2], the “ID40 at 3 nM OHHL” value is on record as 21 nM. Also, the AIC40 in series [2] (setting [10]) and in series [2] (setting [9]) was 0.49 throughout. Also, in series [8] (1.5 ug/ml), the E. coli biofilm was 93% (1.5 ug/ml). Also, in series [3], the inhibition at 50 µg/mL is 45%. Also, in series [4], the minimal effective concentration turned out to be 1 µg/mL. For the same compound, the P. aeruginosa biofilm in series [5] (1 ug/ml) is given as 32% (1 ug/ml).
